The values below come from ChEMBL document CHEMBL5500368, “Discovery of novel diaryl substituted isoquinolin-1(2H)-one derivatives as hypoxia-inducible factor-1 signaling inhibitors for the treatment of rheumatoid arthritis” (Eur J Med Chem, 2024).

Data set [1] can be described thus: Cytotoxicity against human MH7A cells.
Data set [2] can be described thus: Inhibition of HIF-1 (unknown origin) expressed in MH7A cells cotransfected with HRE and renilla luciferase assessed as reduction in luminescence signal preincubated for 1 hr under normoxic condition followed by 24 hrs incubation under hypoxic condition by dual luciferase reporter assay. To be noted: Homo sapiens. In general terms: In a reporter assay the amount or activity of a reporter protein is the signal.

Broadly, the CC50 is the concentration that lowers cell viability or growth by half. A higher CC50 goes with better tolerance by the cells. One may read the IC50 as the midpoint of a concentration-inhibition curve. Take `O=c1c2ccc(-c3ccccc3O)cc2ccn1CCc1ccccc1`: the CC50 in data set [1] was more than 50 µM. Besides, the IC50 in data set [2] came out at 0.91 µM.
In the same order, the values of `COc1ccc(-c2ccc3c(=O)n(CCc4ccccc4)ccc3c2)cc1` are more than 50 µM and 2.18 µM.
In the same order, the values of `COc1ccccc1-c1ccc2c(=O)n(Cc3ccccc3F)ccc2c1` are more than 50 µM and 6.73 µM.
In the same order, the values of `O=c1c2ccc(-c3ccc(O)cc3)cc2ccn1CCc1ccccc1` are more than 50 µM and 0.82 µM.
For `COc1ccccc1-c1ccc2c(=O)n(CCc3ccccc3)ccc2c1`, the CC50 in data set [1] was more than 50 µM. In data set [2], the IC50 came out at 3.31 µM.
In data set [1], `O=c1c2ccc(-c3ccoc3)cc2ccn1Cc1ccccc1F` returned a CC50 of more than 50 µM. The IC50 in data set [2] amounted to 1.46 µM.
In data set [1], `O=c1c2ccc(-c3ccoc3)cc2ccn1Cc1ccccc1` yielded a CC50 of more than 50 µM. Moreover, the IC50 in data set [2] was 5.92 µM.
In the same order, the values of `COc1ccccc1-c1ccc(C(=O)NCCc2ccccc2F)nc1` are more than 50 µM and 4.57 µM.
In the same order, the values of `O=c1c2ccc(-c3ccc(F)cc3)cc2ccn1CCc1ccccc1` are more than 50 µM and 6.21 µM.
In the same order, the values of `COc1ccc(-c2ccc3c(=O)n(Cc4ccccc4F)ccc3c2)cc1` are more than 50 µM and 3.54 µM.
In turn, `O=c1c2ccc(-c3cccc(O)c3)cc2ccn1CCc1ccccc1` had a CC50 in data set [1] of more than 50 µM. Also, the IC50 in data set [2] turned out to be 7.39 µM.
